Results published in patent US20220133699A1, “Antibacterial Compositions” (Singapore Eye Research Institute, priority 2019, published 2022).
Positions of bridges follow the written chain, without caps; N, C: chain ends. Residues, ends and D or L forms follow the SMILES beside them. Chains are numbered I, II in the order given.

Tests used:
KLPN 24076 [1] = test: microbe, parasite or virus in culture; format: cell-based, Klebsiella pneumonia; conditions: for Synergy MIC / MIC: KLPN 24076; for MIC: Klebsiella pneumoniae, agent alone, read-out: Monotherapy MIC
Procedure: (§1) The ability of B2088 [RGRKVVRR)2KK] to kill each of CRE strains KLPN 8852, 27025 and 24076 was tested by itself (as a monotherapy), as well as in combination with one of meropenem, imipenem, or doripenem (as a combination therapy) using minimum inhibitory concentration, or MIC, as a measure of effectiveness. Synergism MIC indicates the MIC of each of B2088 or the carbapenem antibiotic when used as an antibacterial composition.

KLPN 27025 [2] = test: microbe, parasite or virus in culture; format: cell-based, Klebsiella pneumonia; conditions: for Synergy MIC / MIC: KLPN 27025; for MIC: Klebsiella pneumoniae, agent alone, read-out: Monotherapy MIC
Procedure: as §1

KLPN 8852 [3] = test: microbe, parasite or virus in culture; format: cell-based, Klebsiella pneumonia; conditions: for Synergy MIC / MIC: KLPN 8852; for MIC: Klebsiella pneumoniae, agent alone, read-out: Monotherapy MIC
Procedure: as §1

ACBA 1010 [4] = test: microbe, parasite or virus in culture; format: cell-based, Acinetobacter baumannii; conditions: for Synergy MIC / MIC: ACBA 1010; for MIC: Acinetobacter baumannii, agent alone, read-out: Monotherapy MIC
Procedure: as §1, with “strain ACBA 1010” for “each of CRE strains KLPN 8852, 27025 and 24076”

KLPN 8852 [5] = test: MIC of antibiotics alone against KLPN 8852 (Table 1); format: cell-based, Klebsiella pneumonia; conditions: MIC dil in Full strength MHB, antibiotic alone
Procedure: (§2) KLPN 8852, 27025 and 24076 are carbapenemase resistant (“CRE”) strains of the common bacteria, KLPN, Klebsiella pneumonia. […] The ability of amikacin as well as three carbapenem antibiotics (meropenem, imipenem, and doripenem) to kill each of these strains was tested using minimum inhibitory concentration, or MIC, as a measure of effectiveness.

KLPN 27025 [6] = test: MIC of antibiotics alone against KLPN 27025 (Table 1); format: cell-based, Klebsiella pneumonia; conditions: MIC dil in Full strength MHB, antibiotic alone
Procedure: as §2

KLPN 24076 [7] = test: MIC of antibiotics alone against KLPN 24076 (Table 1); format: cell-based, Klebsiella pneumonia; conditions: MIC dil in Full strength MHB, antibiotic alone
Procedure: as §2

ACBA 1010 [8] = test: MIC of antibiotics alone against ACBA 1010 (Table 1); format: cell-based, Acinetobacter baumannii; conditions: MIC dil in Full strength MHB, antibiotic alone
[9] = MIC of each agent in combination B2088 + Doripenem
[10] = MIC of each agent in combination B2088 + Imipenem
[11] = MIC of each agent in combination B2088 + Meropenem

Synergy MIC (KLPN 24076 [1]; [10]) | Synergy MIC (KLPN 27025 [2]; [10]) | Synergy MIC (KLPN 8852 [3]; [10]) | Synergy MIC (ACBA 1010 [4]; [10]) | Structure (SMILES) | Synergy MIC (KLPN 24076 [1]; [9]) | Synergy MIC (KLPN 24076 [1]; [11]) | Synergy MIC (KLPN 27025 [2]; [9]) | Synergy MIC (KLPN 27025 [2]; [11]) | Synergy MIC (KLPN 8852 [3]; [9]) | Synergy MIC (KLPN 8852 [3]; [11]) | Synergy MIC (ACBA 1010 [4]; [9]) | Synergy MIC (ACBA 1010 [4]; [11]) | MIC (KLPN 8852 [5]) | MIC (KLPN 27025 [6]) | MIC (KLPN 24076 [7]) | MIC (ACBA 1010 [8]) | MIC (KLPN 24076 [1]) | MIC (KLPN 27025 [2]) | MIC (KLPN 8852 [3]) | MIC (ACBA 1010 [4]) | further results
1 µg/mL | 1 µg/mL | 0.5 µg/mL | 1 µg/mL | CC(C)[C@H](NC(=O)[C@H](CCCCN)NC(=O)[C@H](CCCNC(=N)N)NC(=O)CNC(=O)[C@@H](N)CCCNC(=N)N)C(=O)N[C@H](C(=O)N[C@@H](CCCNC(=N)N)C(=O)N[C@@H](CCCNC(=N)N)C(=O)NCCCC[C@H](NC(=O)[C@H](CCCNC(=N)N)NC(=O)[C@H](CCCNC(=N)N)NC(=O)[C@@H](NC(=O)[C@@H](NC(=O)[C@H](CCCCN)NC(=O)[C@H](CCCNC(=N)N)NC(=O)CNC(=O)[C@@H](N)CCCNC(=N)N)C(C)C)C(C)C)C(=O)N[C@@H](CCCCN)C(=O)O)C(C)C [B2088, [RGRKVVRR)2KK]] (I: H-RGRKVVRRKK-OH / II: H-RGRKVVRR; amide I:9-II:C; N-terminus and C-terminus assumed) | 1 µg/mL | 1 µg/mL | 0.01562 µg/mL | 0.0625 µg/mL | 0.25 µg/mL | 1 µg/mL | 0.0625 µg/mL | 1 µg/mL |  |  |  |  |  |  |  |  | Monotherapy MIC (KLPN 24076 [1]): 6.25 µg/mL; Monotherapy MIC (KLPN 27025 [2]): 6.25 µg/mL; Monotherapy MIC (KLPN 8852 [3]): 25 µg/mL; Monotherapy MIC (ACBA 1010 [4]): 6.25 µg/mL
 |  |  |  | C[C@@H](O)[C@H]1C(=O)N2C(C(=O)O)=C(S[C@@H]3CN[C@H](CNS(N)(=O)=O)C3)[C@H](C)[C@H]12 [Doripenem, doripenem] | 1 µg/mL |  | 0.007813 µg/mL |  | 0.125 µg/mL |  | 0.007813 µg/mL |  | > 50 µg/mL | 25 µg/mL | 25 µg/mL | 0.195 µg/mL | 25 µg/mL | 25 µg/mL | > 50 µg/mL | < 0.0975 µg/mL | 
 |  |  |  | C[C@@H](O)[C@H]1C(=O)N2C(C(=O)O)=C(S[C@@H]3CN[C@H](C(=O)N(C)C)C3)[C@H](C)[C@H]12 [Meropenem, meropenem] |  | 1 µg/mL |  | 0.007813 µg/mL |  | 1 µg/mL |  | 0.5 µg/mL | > 50 µg/mL | > 50 µg/mL | > 50 µg/mL | 1.56 µg/mL | > 50 µg/mL | 50 µg/mL | > 50 µg/mL | 1.56 µg/mL | 
 |  |  |  | NCC[C@H](O)C(=O)N[C@@H]1C[C@H](N)[C@@H](O[C@H]2O[C@H](CN)[C@@H](O)[C@H](O)[C@H]2O)[C@H](O)[C@H]1O[C@H]1O[C@H](CO)[C@@H](O)[C@H](N)[C@H]1O [Amikacin, amikacin] |  |  |  |  |  |  |  |  | 6.25 µg/mL | 0.78 µg/mL | 1.56 µg/mL | 1.56 µg/mL |  |  |  |  | 
1 µg/mL | 1 µg/mL | 0.5 µg/mL | 1 µg/mL | C[C@@H](O)[C@H]1C(=O)N2C(C(=O)O)=C(SCCN=CN)C[C@H]12 [Imipenem, imipenem] |  |  |  |  |  |  |  |  | > 50 µg/mL | > 50 µg/mL | > 50 µg/mL | 25 µg/mL | > 50 µg/mL | > 50 µg/mL | > 50 µg/mL | 12.5 µg/mL | 
